Measured values: US20070021485A1, “Aryl (or heteroaryl) azolylcarbinols” (priority 2005, published 2007)
Like-named read-outs stand apart in the source and are kept apart here.

What was measured:
rat bladder contractions = assay: Isovolumetric rhythmic bladder contractions in the anesthetized rat: amplitude and rate of the contractions; assay type: in vivo; settings: for amplitude of the bladder contractions / rate of the bladder contractions: anesthetized rat, iv, 6.83, 13.7 and 27.3 mg/kg given as citrate, FIG. 2
Method: (1) Isovolumetric Rhythmic Bladder Contractions in the Anesthetized Rat
(a) Amplitude and Rate of the Contractions
Rat urinary bladder catheterized:
A pressure transducer is used to measure intravesical pressure (recording rate and amplitude of bladder contractions).
An infusion pump is used to fill bladder by 0.1 ml increments of saline until rhythmic contractions. After 15 minutes of constant interval bladder contractions, (R)-(+)-2-((1-methyl-1H-pyrazol-5-yl)(phenyl)methoxy-N-methylethanamine citrate in 6.83, 13.7, and 27.3 mg/kg dosages; (S)-(−)-2-((1-methyl-1H-pyrazol-5-yl)(phenyl)methoxy-N-methylethanamine citrate in 6.83, 13.7 and 27.3 mg/kg dosages; and oxybutinyn in a 1 mg/kg dose were administered by iv. Measurements were made before and then during 15 minute intervals after each administration.
Aditionally the compound 1, accoridng example 1, and its enantiomers were active in rat urinary incontinence test. They inhibited the amplitude of the rat bladder contractions. The compounds were evaluated in a model of cystometry in the anesthesized rat, looking for the effects on isovolumetric rhythmic bladder contractions. The method, which evaluatesthe effects of the test substances on lower urinary tract function, followed that described by Y. Kimura et al. ( Int. J. Urol. 1996, 3: 218-227).

[1] = test system: aversive situation-induced immobility; assay: Inhibition of immobility induced by an aversive situation (tail suspension) in mice; assay type: in vivo; settings: Mus musculus, ip, read-out: Immobility test Tail hanging In mice ED50
Method: The test was described by R. D. Porsolt et al. (Arch.int.Pharmacodyn. 1987, 288: 11-30). Following suchg method, the compound to be studied was administered by ip route, and 30 minutes later mice were submitted to an aversive situation: they were tail suspended in the […] for 6 minutes. Mobility time and movements power were authomatically measured and registered in the above mentioned device. The potential antidepressant reduce the mice immobility time.

rat urinary bladder = assay: Urodynamic parameters (cystometry) in the anesthetized rat; assay type: in vivo; settings: for mean volume of micturition / number of micturitions / volume for the first micturition: anesthetized rat, iv, duloxetine 1 mg/kg, cizolirtine 10 mg/kg, N-desmethyl metabolite 10 mg/kg, vs control vehicle, FIG. 3
Method: Rat urinary bladder was catheterized. A pressure transducer was used to measure intavesical pressure in anesthetized rats treated with 1 mg/kg duloxetine, 10 mg/kg cizolirtine, 10 mg/kg N-desmethyl metabolite or a control vehicle. Recordings were made of the infusion volume, pressure needed for micturition, number of micturitions during the infusion.
An infusion pump was used to fill bladder with saline until micturition. After stabilization, treatment compounds or control vehicle were administered by iv. Fifteen minutes after administration, saline infusion was started and urodynamic parameters were again analyzed. The number of micturitions, volume for first micturition, mean volume for micturition, and AUC of intravesical pressure were measured for each of the treatment groups and compared to the control.
(§1) This is performed on Sprague-Dawley male and female anaesthetized rats. Left carotid artery is inserted with a catheter for the continuous measure of systemic arterial pressure and cardiac frequency. After an incision to the abdomen, a catheter is inserted on the bladder and connected to a pressure transducer and to an infusion pump. The urethra is ligated and the bladder is voided. After stabilization period, saline solution is infused (0.9 % NaC1solution at 5 ml/h rate) and the basal parameters of intravesical pressure are measured for 20 min. Cystometry parameters are the infusion volume and pressure needed to activate the micturition reflex, and the micturition frequency. After stabilization period, the compounds are administered i.v. and, 15 min. later, saline is infused and urodynamic parameters are measured again to compare with basal.

[2] = test system: acetic acid-induced bladder hyperactivity; assay: Protection against acetic acid-induced bladder hyperactivity in the anesthetized rat; assay type: in vivo; settings: for protection of the rat bladder against the acetic acid-induced hyperactivity: cizolirtine 5, 10 mg/kg i.v.; for protection of the rat bladder against the acetic acid-induced hyperactivity / number of micturitions / volume for the first micturition: duloxetine 1 mg/kg; for number of micturitions / volume for the first micturition: cizolirtine 5 and 10 mg/kg, vs control, FIG. 4
Method: (a) Protection Against Acetic Acid-induced Hyperactivity: Urodynamic Parameters
Anesthetized rat bladders were treated with […], […] and 1 mg/kg duloxetine, […] and 5 mg/kg cizolirtine, […] and 10 mg/kg cizolirtine, or […] and 10 mg/kg N-desmethyl metabolite. The number of micturitions, the volume for first micturition, micturition volume, intravesical pressure increase, and AUC of intravesical pressure were measured for each of the treatment groups and the control.
as §1
Further the effect on acetic acid-induced bladder hiperactivity is tested.

[3] = test system: immobility in forced swimming; assay: Water despair test (forced swimming) in rats; assay type: in vivo; settings: for Swimming Test Forced swimming In rats, activity at single dose: 40 mg/Kg; for ED50: read-out: Swimming Test Forced swimming In rats ED50
Method: The test was described by R. D. Porsolt et al. (Europ.J.Pharmacol. 1978, 47:379-391). […] The following day, 24 hours later, were let to swim in the water, but only for 5 minutes, and it was […] immobility time. The compounds to be studied were administered by ip route, 60 minutes before the test. The antidepressants reduce the immobility time. […] (Tablel).

reserpine-induced ptosis = assay: Inhibition of reserpine-induced ptosis in mice; assay type: in vivo; settings: for ED50: Mus musculus, read-out: Inhibition test Reserpin ptosis In mice ED50
Method: It has been used the test described by S.Garattini et al. (Med.Exp. 1960, 3: 315-320). The antidepressant drugs inhibit the parpebral ptosis induced by reserpine ([…], i.p.) in mice.

[4] = test system: urinary incontinence secondary to overactive bladder or idiopathic urge incontinence; assay: Clinical Study B, placebo controlled, 100 mg twice daily; assay type: in vivo, human; settings: patients, 100 mg by oral route twice daily, 84 days
Method: (§2) In a placebo controlled clinical trial 135 patients are randomized. Patients are from both genders with ages between 18 and 80 years (inclusive). They have urinary incontinence secondary to overactive bladder (detrusor hyperreflexia or instability) or idiopathic urge incontinence confirmed by the medical history and urodynamic study.
One group of patients is treated with 2-((1-methyl-1H-pyrazol-5-yl)(phenyl)methoxy-N-methylethanamine 100 mg formulated as an oral administration (twice daily). Another group is treated with placebo matching capsules, […], with administration by oral route. The patients are treated for 84 days.
Efficacy is measured by the difference from baseline in the mean number of voidings/24 hours as provided by a 7-day frequency-volume chart in the end of study visit.
(§3) The primary efficacy analysis is based on the PP population. The treatment groups are compared with respect to the treatment effect, defined as the difference between treatment groups for changes from baseline in the number of voidings per 24 hours.
Additionally, the percentage of responders is compared based on analysis of the number of patients having <8 voidings per day or experienced complete dryness or both., and statistical significance determined.

serotonin transporter = molecular target: T1, serotonin transporter (Rattus norvegicus, UniProt P31652); assay: Serotonin transporter affinity, (3H)paroxetine binding in rat brain cortex; settings: (3H)paroxetine radioligand, serotonin 100 μM non specific
T1 construct: from tissue; host or cells: rat brain cortex
Method: This affinity was studied in rat brain cortex, using (3H)paroxetine ([…]) as radioligand and 5-Hydroxytriptamine (serotonin)(100 μM) as non specific ligand.

[5] = test system: urinary incontinence secondary to overactive bladder or idiopathic urge incontinence; assay: Clinical Study A, placebo controlled, 50 mg twice a day; assay type: in vivo, human; settings: patients
Method: as §2, with “79” for “135”
One group of patients is treated with 2-((1-methyl-1H-pyrazol-5-yl)(phenyl)methoxy-N-methylethanamine, 50 mg, twice a day, formulated as a tablet for oral administration. Another group is treated with placebo in matching tablets, twice a day, with administration by oral route. The patients are treated for 84 days.
Efficacy is measured by the difference from baseline in the mean number of leakages, micturitions, urgencies and voidings/24 hours as provided by a 7-day frequency-volume chart in the end of the study visit.
as §3
Additionally, the percentage of responders is compared based on an analysis of the number of patients having <8 voidings/day or experiencing complete dryness or both, and statistical significance determined.

[6] = mice, i.p., 30 minutes before tail suspension for 6 minutes
[7] = anaesthetized Sprague-Dawley rats, 10 mg/kg i.v., vs basal
[8] = N-desmethyl metabolite 10 mg/kg
[9] = acetic acid 0.3% v/v infusion, 10 mg/kg i.v.
[10] = acetic acid 0.3% v/v infusion, 10 mg/kg i.v. acute
[11] = acetic acid-treated rat bladder, N-desmethyl metabolite 10 mg/kg
[12] = 50 mg twice a day oral, 84 days, compared with placebo

T1 sequence (P31652 whole entry): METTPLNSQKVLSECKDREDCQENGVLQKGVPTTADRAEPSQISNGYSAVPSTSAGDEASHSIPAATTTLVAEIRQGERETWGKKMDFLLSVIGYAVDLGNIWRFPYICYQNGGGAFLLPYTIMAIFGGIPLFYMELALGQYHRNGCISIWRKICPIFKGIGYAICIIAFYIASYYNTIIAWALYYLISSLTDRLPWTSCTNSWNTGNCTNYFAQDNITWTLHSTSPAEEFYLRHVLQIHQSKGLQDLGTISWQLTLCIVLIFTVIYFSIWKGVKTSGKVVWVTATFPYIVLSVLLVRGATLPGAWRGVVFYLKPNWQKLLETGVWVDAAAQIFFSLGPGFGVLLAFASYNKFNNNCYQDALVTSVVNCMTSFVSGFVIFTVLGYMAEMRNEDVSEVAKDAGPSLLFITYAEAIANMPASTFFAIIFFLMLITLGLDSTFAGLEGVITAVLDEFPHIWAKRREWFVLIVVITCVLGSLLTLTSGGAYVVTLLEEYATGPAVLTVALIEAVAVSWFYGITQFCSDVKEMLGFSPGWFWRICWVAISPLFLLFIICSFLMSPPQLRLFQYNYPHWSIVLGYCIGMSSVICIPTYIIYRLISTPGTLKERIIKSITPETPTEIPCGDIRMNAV

SMILES: CNCCO[C@@H](c1ccccc1)c1ccnn1C [2-((S)-(1-methyl-1H-pyrazol-5-yl)(phenyl)methoxy)-N-methylethanamine]
- amplitude of the bladder contractions (rat bladder contractions): inhibited
- rate of the bladder contractions (rat bladder contractions): without modifying the rate

SMILES: CNCCO[C@H](c1ccccc1)c1ccnn1C [(R)-2-((1-methyl-1H-pyrazol-5-yl)(phenyl)methoxy)-N-methylethanamine]
- amplitude of the bladder contractions (rat bladder contractions): inhibited
- rate of the bladder contractions (rat bladder contractions): without modifying the rate

SMILES: CN(C)CCOC(c1ccccc1)c1ccnn1C (centres unmarked) [Cizolirtine]
- ED50 [1, 6]: 17 mg/kg
- bladder contractility (rat urinary bladder; [7]): no alteration
- bladder pressure (rat urinary bladder; [7]): significantly reduced
- mean micturition volume (rat urinary bladder; [7]): significantly increased
- micturition frequency (rat urinary bladder; [7]): trends to decrease
- volume required for first micturition (rat urinary bladder; [7]): augment
- mean volume of micturition (rat urinary bladder): increased
- number of micturitions (rat urinary bladder): decreased
- volume for the first micturition (rat urinary bladder): increased
- protection of the rat bladder against the acetic acid-induced hyperactivity [2, 8]: protected
- acetic acid-caused increase of bladder pressure [2, 9]: reversed
- contractile capacity of the bladder [2, 9]: Neither acetic acid nor cizolirtine significantly affected
- acetic acid-caused increase of micturition frequency [2, 10]: significantly reduced
- acetic acid-caused reduction of micturition volume [2, 10]: significantly reduced
- number of micturitions [2, 11]: reduced
- volume for the first micturition [2, 11]: increased
- Swimming Test Forced swimming In rats, activity at single dose ([3]; rats, i.p.): inactive
- ED50 (reserpine-induced ptosis; mice, p.o., reserpine i.p.): 26 mg/kg

SMILES: CNCCOC(c1ccccc1)c1ccnn1C (centres unmarked) [Compound 1, 2-((1-methyl-1H-pyrazol-5-yl)(phenyl)methoxy)-N-methylethanamine]
- bladder overactivity [4]: improve bladder overactivity
- ED50 [1]: 17 mg/kg
- mean volume of micturition (rat urinary bladder): increased
- number of micturitions (rat urinary bladder): decreased
- volume for the first micturition (rat urinary bladder): increased
- protection of the rat bladder against the acetic acid-induced hyperactivity [2, 8]: protected
- number of micturitions (sentence on FIG. 5) ([2]; acetic acid-treated rat bladder, N-desmethyl metabolite 10 mg/kg, FIG. 5): increased
- number of micturitions [2, 11]: reduced
- volume for the first micturition [2, 11]: increased
- Ki (serotonin transporter): 116 nM
- amplitude of the rat bladder contractions, rat urinary incontinence test (rat bladder contractions; cystometry in the anesthesized rat, method of Kimura et al.): inhibited
- ED50 ([3]; Rattus norvegicus, ip): 33 mg/kg
- ED50 (reserpine-induced ptosis): 14 mg/kg
- urge incontinence caused by overactive bladder, majority of efficacy variables ([5]; 50 mg twice a day by oral route, compared to placebo): clinically significant improvements
- mean number of daily leakages [5, 12]: significant reduction
- mean number of daily micturitions [5, 12]: significant reduction
- mean number of daily urgencies [5, 12]: significant reduction
- mean number of daily voidings [5, 12]: significant reduction

SMILES: CNCCOC(c1cccs1)c1ccnn1C.O=C(O)C(=O)O (centres unmarked) [Compound 2, 2-((1-methyl-1H-pyrazol-5-yl)(thiophen-2-yl)methoxy)-N-methylethanamine; oxalate]
- ED50 [1, 6]: 33 mg/kg
- Swimming Test Forced swimming In rats, activity at single dose ([3]; rats, i.p.): inactive
- Inhibition test Reserpin ptosis In mice, activity at single dose (reserpine-induced ptosis; mice, p.o., 40 mg/Kg): inactive

SMILES: CNCCCN1c2ccccc2CCc2ccccc21 [Desipramine]
- inhibition at 30 mg/kg ([3]; Rattus norvegicus, ip, rats, i.p., 30 mg/Kg, read-out: Swimming Test Forced swimming In rats, I (inhibition) at single dose): 32%

SMILES: CN[C@H]1CC[C@@H](c2ccc(Cl)c(Cl)c2)c2ccccc21 [Sertraline]
- ED50 [1, 6]: 8 mg/kg
- ED50 ([3]; Rattus norvegicus, ip, rats, i.p., 60 minutes before the test): 28 mg/kg
- ED50 (reserpine-induced ptosis; mice, p.o., reserpine i.p.): 17 mg/kg

SMILES: CNCC[C@H](Oc1cccc2ccccc12)c1cccs1 [duloxetine]
- mean volume of micturition (rat urinary bladder): increased
- number of micturitions (rat urinary bladder): decreased
- volume for the first micturition (rat urinary bladder): increased
- protection of the rat bladder against the acetic acid-induced hyperactivity [2, 8]: protected
- number of micturitions [2, 11]: reduced
- volume for the first micturition [2, 11]: increased
